Results from publication PMC12322260, “Anticancer activity of triterpene glycosides from the sea star Solaster pacificus” (Scientific Reports, 2025).

Columns and labels:
22Rv1 cells = experiment: MTT cytotoxicity assay; format: cell-based, human; conditions: Homo sapiens; 22Rv1, 48 h, mean ± SD
From the text: (§1) The cell lines were purchased from ATCC (Manassas, VA, USA) or ECACC (Salisbury, UK). The following cell lines were used: Human prostate cancer cells LNCaP (ATCC; RRID:CVCL_0395), VCaP (ECACC; RRID:CVCL_2235), 22Rv1 (ATCC; RRID:CVCL_1045), PC3 (ATCC; RRID:CVCL_0035), and DU145 (ATCC; RRID:CVCL_0105); human prostate non-cancer cells PNT2 (ATCC; RRID:CVCL_2164) and RWPE-01 (ATCC; RRID:CVCL_3791). Human non-cancer embryonic kidney cells HEK293T (ECACC; RRID:CVCL_0063) and human fibroblast cells MRC-9 (ECACC; RRID:CVCL_2629). The docetaxel-resistant cells PC3-DR were generated by long-term treatment of human prostate cancer PC3 cells with sublethal concentrations of docetaxel as previously described[32] and were provided by Prof. Z. Culig (Innsbruck Medical University, Austria). All cell lines were recently authenticated by a commercial service (Multiplexion GmbH, Heidelberg, Germany) and were cultured as previously described[58],[59]. Cells were kept in culture for a maximum of three months and were routinely examined for bacterial, fungal, and mycoplasma infections.

DU145 cells = experiment: MTT cytotoxicity assay; format: cell-based, human; conditions: Homo sapiens, DU-145; DU145, 48 h, mean ± SD
From the text: as §1

HEK293T cells = experiment: MTT cytotoxicity assay; format: cell-based, human; conditions: Homo sapiens, HEK-293T, 48 h, mean ± SD
From the text: as §1

LNCaP cells = experiment: MTT cytotoxicity assay; format: cell-based, human; conditions: Homo sapiens, 48 h, mean ± SD
From the text: as §1

MRC-9 cells = experiment: MTT cytotoxicity assay; format: cell-based, human; conditions: Homo sapiens, MRC9; MRC-9, 48 h, mean ± SD
From the text: as §1

PC3 cells = experiment: MTT cytotoxicity assay; format: cell-based, human; conditions: Homo sapiens, PC-3; PC3, 48 h, mean ± SD
From the text: as §1

PC3-DR cells [1] = experiment: MTT cytotoxicity assay; format: cell-based, human; conditions: Homo sapiens, 48 h, mean ± SD
From the text: as §1

PNT2 cells = experiment: MTT cytotoxicity assay; format: cell-based, human; conditions: Homo sapiens; PNT2, 48 h, mean ± SD
From the text: as §1

RWPE-1 cells = experiment: MTT cytotoxicity assay; format: cell-based, human; conditions: Homo sapiens; RWPE-1, 48 h, mean ± SD
From the text: as §1

VCaP cells = experiment: MTT cytotoxicity assay; format: cell-based, human; conditions: Homo sapiens, 48 h, mean ± SD
From the text: as §1

phospho-ERK1/2 = experiment: Western blot analysis of MAP kinases; format: cell-based, human; conditions: 22Rv1, 2 h
Procedure: (§2) Fig. 3 Functional kinome profiling of STKs (serine/threonine kinases) in 22Rv1 cells and validation of results. (a) Expression of apoptotic markers. The cells were treated with CuC1 for the indicated time, and the expression of proteins was analyzed by Western blotting. (b, c) Functional kinome profiling. A heatmap displaying log2-transformed phosphorylation levels of 99 analyzed STK substrate peptides (b) and upstream kinase analysis, which predicted kinases affected by CuC1 (c). Values of the normalized kinase statistics represented by bars, where log2 < 0 indicates decreased kinase activity and log2 > 0 denotes increased activity. Statistically significant changes having a specificity score log2 > 1.3 are highlighted by red bars. Number of biological replicates n = 3. (d), Western blot analysis of MAP kinases. 22Rv1 cells were treated with CuC1 for 2 h and the MAPK expression was analyzed by Western blotting. β-actin was used as a loading control. The band intensity of the protein of interest was quantified using Image Lab software and normalized to the band intensity β-actin (a), or to the band intensity of non-phospho MAPK (d), and is indicated by red numbers. Full-size blots are presented in Supplementary Fig. S2.
(§3) Western blotting was performed as previously described. In brief, 22Rv1 cells were seeded in Petri dishes (1 × 10^6 cells/dish in 10 mL/dish of media), incubated overnight, and treated with the drug for a specific time. Cells were harvested by scratching, washed with cold PBS, and lysed with RIPA buffer supplemented with protease and phosphatase inhibitor cocktails. Protein lysates were separated using precast Mini-PROTEAN® TGX Stain-FreeTM gels (Bio-Rad, Hercules, CA, USA) and SDS-PAGE. Proteins were transferred on a PVDF membrane and detected using specified primary and secondary antibodies. The protein signals were visualized and detected using the ECL chemiluminescence system (Thermo Scientific, Rockford, IL, USA). […] The signal (band) intensity was quantified using Image Lab v. […]

phospho-JNK1/2 = experiment: Western blot analysis of MAP kinases; format: cell-based, human; conditions: 22Rv1, 2 h
Procedure: as §2, §3

phospho-p38 = experiment: Western blot analysis of MAP kinases; format: cell-based, human; conditions: 22Rv1, 2 h
Procedure: as §2, §3

PC3-DR cells [2] = conditions: TQD 50 nM
Procedure: Viability was evaluated using MTT assay, and IC50s were calculated using GraphPad Prism software. Number of biological replicates n = 3. […] Cells (6 × 10^3 cells/well in 100 μL/well of media) were plated in 96-well plates. The plates were incubated overnight, and the medium was replaced with fresh medium containing drugs at the indicated concentrations. The plates were further incubated for 48 h, unless otherwise stated, the solution of MTT reagent in PBS was added to each well, and cells were incubated for another 2–4 h to form formazan crystals. Then the media was removed and the plates were dried overnight. 50 μL of DMSO was added to each well to dissolve the formazan crystals. The absorbance of each well was measured using an Infinite F200PRO reader (TECAN, Männedorf, Switzerland). The cell viability was estimated as an inhibition concentration (IC50), which was calculated using GraphPad Prism software v.9.1.1 (GraphPad Software, San Diego, CA, USA). IC₅₀ values were determined by fitting the data to a nonlinear regression model (log[inhibitor] versus normalized response—variable slope).

[3] = test system: HT-29, RPMI-7951, and MDA-MB-231 cells; set-up: method as in PMID 33799442; conditions: nontoxic concentrations; cited from earlier work

Compound `CO[C@@H]1[C@@H](O)[C@H](O[C@@H]2[C@@H](O)[C@H](O[C@H]3[C@H](O)[C@@H](O[C@@H]4OC[C@@H](O)[C@H](O)[C@H]4O)[C@H](O[C@H]4[C@H](O[C@H]5CC[C@]6(C)[C@@H]7CCC89C(=O)O[C@@](C)(/C=C\C=C(C)C)[C@H]8[C@@H](OC(C)=O)C[C@@]9(C)C7=CC[C@H]6C5(C)C)OC[C@@H](O)[C@@H]4O)O[C@@H]3C)O[C@H](CO)[C@H]2O)OC[C@H]1O` (stereo partly drawn) [CuC1, cucumarioside C1] has an IC50 (22Rv1 cells) of 246 ± 17 nM, an IC50 (DU145 cells) of 3240 ± 340 nM and an IC50 (HEK293T cells) of 660 ± 50 nM. For the same compound, the IC50 (LNCaP cells) was 3000 ± 540 nM, the IC50 (MRC-9 cells) was 959 ± 248 nM and the IC50 (PC3 cells) was 1590 ± 120 nM. The IC50 (PC3-DR cells [1]) was 5690 ± 780 nM, the IC50 (PNT2 cells) was 754 ± 58 nM and the IC50 (RWPE-1 cells) was 554 ± 105 nM. The IC50 (VCaP cells) was 472 ± 65 nM, the “active (phosphorylated) ERK1/2” value (phospho-ERK1/2) was “inhibition of active (phosphorylated) forms” and the “active (phosphorylated) JNK1/2” value (phospho-JNK1/2) was “but not JNK1/2”. For the same compound, the “active (phosphorylated) p38” value (phospho-p38) was “inhibition of active (phosphorylated) forms”, the “effect of co-treatment with tariquidar on cytotoxicity” value (PC3-DR cells [2]) was “did not alter cytotoxicity” and the colony formation [3] was “strongly suppressed the colony formation”.
